From patent US9745283B2, “Uracil derivatives as AXL and c-MET kinase inhibitors” (priority 2011, dated 2017)

How the values were obtained:
[1] = molecular target: recombinant human baculovirus-expressed AXL (Homo sapiens (Human), UniProt P30530); test: AXL Kinase Assay (HTRF KinEASE); assay type: biochemical; details: average of two or more determinations
Experimental: The ability of compounds to inhibit the kinase activity of recombinant human baculovirus-expressed AXL was measured by homogeneous TRF (HTRF) using Cisbio's KinEASE™ assay system in white 384-well Optiplates. Assay buffer contained 1 mM DTT, 2 mM MnCl2, 2% DMSO, […] supplement enzymatic buffer, and 1× enzymatic buffer. A 2× concentration of tyrosine kinase (TK) substrate-biotin/ATP mixture made in assay buffer was added to plates at 10 μL/well using the Multidrop Combi (Thermo Fisher Scientific, Waltham, Mass.). […] Compounds (100 nL), diluted in 100% DMSO on the Biomek FX, (Beckman Coulter, Inc., Brea, Calif.), were transferred to the assay plates using the Biomek FX pintool (2.5% final DMSO in assay). […] Plates were sealed, briefly shaken and incubated at 25° C. for 30 minutes. […] Plates were sealed, briefly shaken and incubated at 25° C. for 1 hour.
Inhibition curves for compounds were generated by plotting percent control activity versus log 10 of the concentration of compound. IC50 values were calculated by nonlinear regression using the sigmoidal dose-response (variable slope) equation in GraphPad Prism as follows: y=bottom+(top−bottom)/(1+10(log IC50−x)*Hill Slope) where y is the % kinase activity at a given concentration of compound, x is the logarithm of the concentration of compound, bottom is the % of control kinase activity at the highest compound concentration tested, and top is the % of control kinase activity at the lowest compound concentration examined. The values for bottom and top were fixed at 0 and 100, respectively.

[2] = molecular target: recombinant human baculovirus-expressed cMET (Homo sapiens (Human), UniProt P08581); test: C-MET Kinase Assay (HTRF KinEASE); assay type: biochemical; details: average of two or more determinations; read-out: c-MET IC50
Summary of the method: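 HTRF KinEASE format with recombinant human baculovirus-expressed cMET at 8 ng/mL, biotinylated peptide at 0.1 μM and ATP at 0.02 μM. IC50 came from percent control activity versus log concentration, fitted by nonlinear regression to a variable-slope sigmoidal equation with bottom fixed at 0 and top at 100.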

## COc1cc2nccc(Oc3ccc(NC(=O)c4cn(CCc5ccccc5F)c(=O)n(-c5ccc(F)cc5)c4=O)cc3F)c2cc1OC [Example 78, 3-(4-Fluoro-phenyl)-1-[2-(2-fluoro-phenyl)-ethyl]-2,4-dioxo-1,2,3,4-tetrahydro-pyrimidine-5-carboxylic acid [4-(6,7-dimethoxy-quinolin-4-yloxy)-3-fluoro-phenyl]-amide]
[1]
  IC50: < 10 nM
[2]
  IC50: 10 to 100 nM

## COCCn1cc(C(=O)Nc2ccc(Oc3ccnc4cc(OC)c(OC)cc34)c(F)c2)c(=O)n(-c2ccc(F)cc2)c1=O [Example 3, 3-(4-Fluorophenyl)-1-(2-methoxyethyl)-2,4-dioxo-1,2,3,4-tetrahydropyrimidine-5-carboxylic acid [4-(6,7-dimethoxyquinolin-4-yloxy)-3-fluorophenyl]-amide]
[1]
  IC50: < 10 nM
[2]
  IC50: 10 to 100 nM

## CCn1cc(C(=O)Nc2ccc(Oc3ccnc4cc(OC)c(OC)cc34)cn2)c(=O)n(-c2ccc(F)cc2)c1=O [Example 31, 1-Ethyl-3-(4-fluorophenyl)-2,4-dioxo-1,2,3,4-tetrahydropyrimidine-5-carboxylic acid [5-(6,7-dimethoxyquinolin-4-yloxy)-pyridin-2-yl]-amide]
[1]
  IC50: < 10 nM
[2]
  IC50: 10 to 100 nM

## COc1cc2nccc(Oc3ccc(NC(=O)c4cn(CC=C(F)F)c(=O)n(-c5ccc(F)cc5)c4=O)cc3F)c2cc1OC [Example 14, 1-(3,3-Difluoro-allyl)-3-(4-fluorophenyl)-2,4-dioxo-1,2,3,4-tetrahydropyrimidine-5-carboxylic acid [4-(6,7-dimethoxyquinolin-4-yloxy)-3-fluorophenyl]-amide]
[1]
  IC50: < 10 nM
[2]
  IC50: < 10 nM

## CCn1cc(C(=O)Nc2ccc(Oc3ccnc4cc(OC)c(OC)cc34)c(OC)c2)c(=O)n(-c2ccc(F)cc2)c1=O [Example 151, 1-Ethyl-3-(4-fluoro-phenyl)-2,4-dioxo-1,2,3,4-tetrahydro-pyrimidine-5-carboxylic acid [4-(6,7-dimethoxy-quinolin-4-yloxy)-3-methoxy-phenyl]-amide]
[1]
  IC50: < 10 nM
[2]
  IC50: 10 to 100 nM

## COc1cc2nccc(Oc3ccc(NC(=O)c4cn(CCCO)c(=O)n(-c5ccc(F)cc5)c4=O)c(F)c3)c2cc1OC [Example 51, 3-(4-Fluorophenyl)-1-(3-hydroxypropyl)-2,4-dioxo-1,2,3,4-tetrahydropyrimidine-5-carboxylic acid [4-(6,7-dimethoxy-quinolin-4-yloxy)-2-fluoro-phenyl]-amide]
[1]
  IC50: < 10 nM
[2]
  IC50: < 10 nM

## COc1cc2nccc(Oc3ccc(NC(=O)c4cn(C(C)C)c(=O)n(-c5ccc(F)cc5)c4=O)cc3)c2cc1OC [Example 23, 3-(4-Fluorophenyl)-1-isopropyl-2,4-dioxo-1,2,3,4-tetrahydropyrimidine-5-carboxylic acid [4-(6,7-dimethoxyquinolin-4-yloxy)phenyl]-amide]
[1]
  IC50: < 10 nM
[2]
  IC50: < 10 nM

## COc1cc2nccc(Oc3ccc(NC(=O)c4cn(CC5CC5)c(=O)n(-c5ccc(F)cc5)c4=O)cc3F)c2cc1OC [Example 6, 1-Cyclopropylmethyl-3-(4-fluorophenyl)-2,4-dioxo-1,2,3,4-tetrahydropyrimidine-5-carboxylic acid [4-(6,7-dimethoxyquinolin-4-yloxy)-3-fluorophenyl]-amide]
[1]
  IC50: < 10 nM
[2]
  IC50: < 10 nM

## CCn1cc(C(=O)Nc2ccc(Oc3ccnc4cc(OC)c(OC)cc34)c(F)c2F)c(=O)n(-c2ccc(F)cc2)c1=O [Example 147, 1-Ethyl-3-(4-fluoro-phenyl)-2,4-dioxo-1,2,3,4-tetrahydro-pyrimidine-5-carboxylic acid [4-(6,7-dimethoxy-quinolin-4-yloxy)-2,3-difluoro-phenyl]-amide]
[1]
  IC50: < 10 nM
[2]
  IC50: < 10 nM

## COc1cc2nccc(Oc3ccc(NC(=O)c4cn(C5CCC5)c(=O)n(-c5ccc(F)cc5)c4=O)cc3F)c2cc1OC [Example 29, 1-Cyclobutyl-3-(4-fluorophenyl)-2,4-dioxo-1,2,3,4-tetrahydropyrimidine-5-carboxylic acid [4-(6,7-dimethoxyquinolin-4-yloxy)-3-fluorophenyl]-amide]
[1]
  IC50: < 10 nM
[2]
  IC50: 10 to 100 nM

## COc1cc2nccc(Oc3ccc(NC(=O)c4cn(CCO)c(=O)n(-c5ccc(F)cc5)c4=O)cc3)c2cc1OC [Example 53, 3-(4-Fluorophenyl)-1-(2-hydroxyethyl)-2,4-dioxo-1,2,3,4-tetrahydropyrimidine-5-carboxylic acid [4-(6,7-dimethoxyquinolin-4-yloxy)phenyl]-amide]
[1]
  IC50: < 10 nM
[2]
  IC50: < 10 nM

## COc1cc2nccc(Oc3ccc(NC(=O)c4nn(C)c(=O)n(CC(C)(C)C)c4=O)cc3F)c2cc1OC [Example 129, 4-(2,2-Dimethylpropyl)-2-methyl-3,5-dioxo-2,3,4,5-tetrahydro-[1,2,4]triazine-6-carboxylic acid [4-(6,7-dimethoxyquinolin-4-yloxy)-3-fluorophenyl]-amide]
[1]
  IC50: < 10 nM
[2]
  IC50: 10 to 100 nM

## COc1cc2nccc(Oc3ccc(NC(=O)c4cn(C)c(=O)n(-c5ccc(F)cc5)c4=O)cc3F)c2cc1OC [Example 2, 3-(4-Fluorophenyl)-1-methyl-2,4-dioxo-1,2,3,4-tetrahydropyrimidine-5-carboxylic acid [4-(6,7-dimethoxyquinolin-4-yloxy)-3-fluoro-phenyl]-amide]
[1]
  IC50: < 10 nM
[2]
  IC50: < 10 nM

## COc1cc2nccc(C(O)c3ccc(NC(=O)c4cn(C)c(=O)n(-c5ccc(F)cc5)c4=O)cc3F)c2cc1OC (stereo not drawn) [Example 57, 3-(4-fluoro-phenyl)-1-methyl-2,4-dioxo-1,2,3,4-tetrahydro-pyrimidine-5-carboxylic acid {4-[(6,7-dimethoxy-quinolin-4-yl)-hydroxy-methyl]-3-fluoro-phenyl}-amide]
[1]
  IC50: < 10 nM
[2]
  IC50: 101 to 1000 nM

## COc1cc2nccc(Oc3ccc(NC(=O)c4cn(Cc5ncco5)c(=O)n(-c5ccc(F)cc5)c4=O)cc3F)c2cc1OC [Example 72, 3-(4-Fluoro-phenyl)-1-oxazol-2-ylmethyl-2,4-dioxo-1,2,3,4-tetrahydro-pyrimidine-5-carboxylic acid [4-(6,7-dimethoxy-quinolin-4-yloxy)-3-fluoro-phenyl]-amide]
[1]
  IC50: < 10 nM
[2]
  IC50: 10 to 100 nM

## COc1cc2nccc(Oc3ccc(NC(=O)c4cn(CCN5CCCC5=O)c(=O)n(-c5ccc(F)cc5)c4=O)cc3F)c2cc1OC [Example 68, 3-(4-Fluoro-phenyl)-2,4-dioxo-1-[2-(2-oxo-pyrrolidin-1-yl)-ethyl]-1,2,3,4-tetrahydro-pyrimidine-5-carboxylic acid [4-(6,7-dimethoxy-quinolin-4-yloxy)-3-fluoro-phenyl]-amide]
[1]
  IC50: < 10 nM
[2]
  IC50: < 10 nM

## CCN(CC)C(=O)Cn1cc(C(=O)Nc2ccc(Oc3ccnc4cc(OC)c(OC)cc34)c(F)c2)c(=O)n(-c2ccc(F)cc2)c1=O [Example 66, 1-Diethylcarbamoylmethyl-3-(4-fluoro-phenyl)-2,4-dioxo-1,2,3,4-tetrahydro-pyrimidine-5-carboxylic acid [4-(6,7-dimethoxy-quinolin-4-yloxy)-3-fluoro-phenyl]-amide]
[1]
  IC50: < 10 nM
[2]
  IC50: < 10 nM

## C=CCn1cc(C(=O)Nc2ccc(Oc3ccnc4cc(OC)c(OC)cc34)cc2F)c(=O)n(-c2ccc(F)cc2)c1=O [Example 88, 1-Allyl-3-(4-fluoro-phenyl)-2,4-dioxo-1,2,3,4-tetrahydro-pyrimidine-5-carboxylic acid [4-(6,7-dimethoxy-quinolin-4-yloxy)-2-fluoro-phenyl]-amide]
[1]
  IC50: < 10 nM
[2]
  IC50: 10 to 100 nM

## CCn1cc(C(=O)Nc2ccc(Oc3ccnc4cc(OC)c(OC)cc34)c(F)c2)c(=O)n(-c2ccccc2)c1=O [Example 100, 1-Ethyl-2,4-dioxo-3-phenyl-1,2,3,4-tetrahydro-pyrimidine-5-carboxylic acid [4-(6,7-dimethoxy-quinolin-4-yloxy)-3-fluoro-phenyl]-amide]
[1]
  IC50: < 10 nM
[2]
  IC50: 10 to 100 nM

## CCn1cc(C(=O)Nc2ccc(Oc3ccnc4cc(OC)c(OC)cc34)c(F)c2)c(=O)n(-c2ccc(F)cc2)c1=O [Example 1, 1-Ethyl-3-(4-fluorophenyl)-2,4-dioxo-1,2,3,4-tetrahydropyrimidine-5-carboxylicacid [4-(6,7-dimethoxyquinolin-4-yloxy)-3-fluorophenyl]amide]
[1]
  IC50: < 10 nM
[2]
  IC50: < 10 nM

## COc1cc2nccc(Oc3ccc(NC(=O)c4cn(CCCOCc5ccccc5)c(=O)n(-c5ccc(F)cc5)c4=O)cc3)c2cc1OC [Example 21, 1-(3-Benzyloxypropyl)-3-(4-fluorophenyl)-2,4-dioxo-1,2,3,4-tetrahydropyrimidine-5-carboxylic acid [4-(6,7-dimethoxyquinolin-4-yloxy)phenyl]-amide]
[1]
  IC50: < 10 nM
[2]
  IC50: 10 to 100 nM
